Reference: ChEMBL document CHEMBL4229561, “Design, synthesis, and biological evaluation of selective and potent Carbazole-based butyrylcholinesterase inhibitors” (Bioorg Med Chem, 2018)
Activity calls are given as the source filed them. No cut-off for these calls is given here.

Columns and labels:
[1] = Selectivity index, ratio of IC50 for electric eel AChE to IC50 for equine serum BuChE
Cholinesterase [2] = target: T1, Cholinesterase (Equus caballus, UniProt P81908); experiment: Inhibition of equine serum BuChE using butyrylthiocholine iodide as substrate preincubated for 10 mins followed by substrate addition measured for 5 mins by Ellman's method
Acetylcholinesterase = Acetylcholinesterase (Electrophorus electricus, UniProt O42275); experiment: Inhibition of electric eel AChE using acetylthiocholine iodide as substrate preincubated for 10 mins followed by substrate addition measured for 5 mins by Ellman's method
Rattus norvegicus [3] = experiment: Reversal of scopolamine-induced memory impairment in albino Wistar rat assessed as effect on swimming speed at 2.5 mg/kg, ip by Morris water maze test; format: functional, organism-based
Rattus norvegicus [4] = experiment: Reversal of scopolamine-induced memory impairment in albino Wistar rat assessed as increase in time spent in target quadrant in probe day at 2.5 mg/kg, ip by Morris water maze test; format: functional, organism-based
Rattus norvegicus [5] = experiment: Reversal of scopolamine-induced memory impairment in albino Wistar rat assessed as decrease in mean training period traveled distance to find platform at 2.5 mg/kg, ip by Morris water maze test; format: functional, organism-based
[6] = target: Amyloid-beta precursor protein (Homo sapiens) (UniProt P05067); experiment: Inhibition of HFIP-pretreated amyloid beta (1 to 42) (unknown origin) self-induced aggregation at 10 uM after 48 hrs by thioflavin-T fluorescence assay relative to control
Rattus norvegicus [7] = experiment: Reversal of scopolamine-induced memory impairment in albino Wistar rat assessed as increase in time spent in target quadrant in probe day at 10 mg/kg, ip by Morris water maze test; format: functional, organism-based
PC-12 [8] = experiment: Cytotoxicity against rat PC12 cells assessed as reduction in cell viability at 100 uM by MTT assay; format: cell-based; conditions: pc-12, 100 µM
Rattus norvegicus [9] = experiment: Reversal of scopolamine-induced memory impairment in albino Wistar rat assessed as decrease in mean training period traveled distance to find platform at 10 mg/kg, ip by Morris water maze test; format: functional, organism-based
Rattus norvegicus [10] = experiment: Reversal of scopolamine-induced memory impairment in albino Wistar rat assessed as effect on swimming speed at 5 to 20 mg/kg, ip by Morris water maze test; format: functional, organism-based
PC-12 [11] = experiment: Neuroprotection against H2O2-induced cell death in rat PC12 cells assessed as increase in cell viability at 1 uM preincubated for 3 hrs followed by H2O2 addition measured after 12 hrs by MTT assay; format: functional, cell-based
Rattus norvegicus [12] = experiment: Reversal of scopolamine-induced memory impairment in albino Wistar rat assessed as decrease in mean training period scape latency at 10 mg/kg, ip by Morris water maze test; format: functional, organism-based
[13] = target: Cholinesterase (Equus caballus) (UniProt P81908); experiment: Potency index, ratio of galantamine IC50 to compound IC50 for inhibition of equine serum BuChE
[14] = target: Cholinesterase (Equus caballus) (UniProt P81908); experiment: Potency index, ratio of donepezile IC50 to compound IC50 for inhibition of equine serum BuChE
Cholinesterase [15] = target: T1, Cholinesterase; experiment: Mixed-type inhibition of equine serum BuChE using varying levels of butyrylthiocholine iodide as substrate preincubated for 10 mins followed by substrate addition measured for 5 mins by Lineweaver-Burk plot analysis
PC-12 [16] = experiment: Neuroprotection against H2O2-induced cell death in rat PC12 cells assessed as cell viability at 10 uM preincubated for 3 hrs followed by H2O2 addition measured after 12 hrs by MTT assay relative to control; format: functional; conditions: read-out: Activity

Sequence of Acetylcholinesterase (O42275 whole entry): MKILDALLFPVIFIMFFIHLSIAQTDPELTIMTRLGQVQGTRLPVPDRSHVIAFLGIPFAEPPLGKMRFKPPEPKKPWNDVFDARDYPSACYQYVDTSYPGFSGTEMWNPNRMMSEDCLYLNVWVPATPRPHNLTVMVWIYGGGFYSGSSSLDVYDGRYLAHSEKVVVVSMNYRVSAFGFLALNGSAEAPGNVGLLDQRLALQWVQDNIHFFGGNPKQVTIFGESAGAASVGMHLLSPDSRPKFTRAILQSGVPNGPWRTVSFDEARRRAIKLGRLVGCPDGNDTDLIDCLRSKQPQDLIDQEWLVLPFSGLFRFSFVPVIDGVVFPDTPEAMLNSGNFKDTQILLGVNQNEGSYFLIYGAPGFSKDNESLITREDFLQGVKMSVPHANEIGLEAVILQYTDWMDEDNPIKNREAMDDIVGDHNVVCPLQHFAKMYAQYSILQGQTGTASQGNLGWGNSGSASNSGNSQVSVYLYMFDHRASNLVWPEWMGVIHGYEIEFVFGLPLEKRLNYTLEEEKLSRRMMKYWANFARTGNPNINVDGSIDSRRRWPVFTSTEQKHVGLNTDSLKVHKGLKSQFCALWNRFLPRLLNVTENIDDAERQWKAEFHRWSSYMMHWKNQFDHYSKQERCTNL
T1 sequence (P81908 whole entry): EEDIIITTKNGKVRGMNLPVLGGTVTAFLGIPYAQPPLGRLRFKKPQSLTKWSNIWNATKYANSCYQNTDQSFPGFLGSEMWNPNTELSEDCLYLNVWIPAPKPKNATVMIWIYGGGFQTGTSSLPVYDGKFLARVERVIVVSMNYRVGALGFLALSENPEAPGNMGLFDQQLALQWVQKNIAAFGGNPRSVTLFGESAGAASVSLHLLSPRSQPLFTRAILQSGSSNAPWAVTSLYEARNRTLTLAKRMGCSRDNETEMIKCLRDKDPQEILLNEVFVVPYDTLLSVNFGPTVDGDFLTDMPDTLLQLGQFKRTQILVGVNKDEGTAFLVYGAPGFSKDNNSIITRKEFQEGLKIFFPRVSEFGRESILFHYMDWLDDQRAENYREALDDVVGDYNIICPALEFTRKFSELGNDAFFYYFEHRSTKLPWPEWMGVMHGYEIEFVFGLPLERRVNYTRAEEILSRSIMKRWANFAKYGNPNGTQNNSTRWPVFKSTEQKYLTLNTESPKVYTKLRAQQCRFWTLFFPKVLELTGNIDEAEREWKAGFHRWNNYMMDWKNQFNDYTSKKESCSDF
Sequence of Amyloid-beta precursor protein (Homo sapiens) (P05067 whole entry): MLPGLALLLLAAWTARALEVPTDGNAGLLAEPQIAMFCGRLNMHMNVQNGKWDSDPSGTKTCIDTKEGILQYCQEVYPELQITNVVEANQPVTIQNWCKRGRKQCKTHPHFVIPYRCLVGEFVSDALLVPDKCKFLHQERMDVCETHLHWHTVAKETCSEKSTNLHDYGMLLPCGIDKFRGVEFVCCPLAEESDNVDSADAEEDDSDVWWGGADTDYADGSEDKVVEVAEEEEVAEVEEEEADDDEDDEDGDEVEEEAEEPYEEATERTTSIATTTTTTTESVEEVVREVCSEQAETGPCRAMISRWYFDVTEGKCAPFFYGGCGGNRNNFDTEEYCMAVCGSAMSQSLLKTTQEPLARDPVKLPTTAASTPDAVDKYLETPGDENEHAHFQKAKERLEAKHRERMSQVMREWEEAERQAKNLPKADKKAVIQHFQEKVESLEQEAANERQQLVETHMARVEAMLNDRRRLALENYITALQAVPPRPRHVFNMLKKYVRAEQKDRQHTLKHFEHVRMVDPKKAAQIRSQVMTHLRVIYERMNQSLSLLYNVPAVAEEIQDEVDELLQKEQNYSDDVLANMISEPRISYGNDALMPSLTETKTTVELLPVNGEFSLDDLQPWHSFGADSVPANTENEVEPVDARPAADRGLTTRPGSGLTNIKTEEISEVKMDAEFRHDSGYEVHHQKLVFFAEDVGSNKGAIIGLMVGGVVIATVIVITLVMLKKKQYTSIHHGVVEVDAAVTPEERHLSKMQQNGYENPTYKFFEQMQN
Sequence of Cholinesterase (Equus caballus) (P81908 whole entry): as the sequence (P81908 whole entry) above

Compound | Ratio IC50 [1] | IC50 (Cholinesterase [2]) [nM] | IC50 (Acetylcholinesterase) [nM] | also measured
Cc1cccc(C[n+]2cccc(Cn3c4ccccc4c4ccccc43)c2)c1 | 236 | 280 | 66000 | 
Fc1ccc(C[n+]2ccc(Cn3c4ccccc4c4ccccc43)cc2)cc1 | 21.1 | 890 | 18800 | 
COc1cc2c(cc1OC)C(=O)C(CC1CCN(Cc3ccccc3)CC1)C2 (stereo not given) |  |  |  | Activity (Rattus norvegicus [3]): inactive; Activity (Rattus norvegicus [4]): Active; Activity (Rattus norvegicus [5]): Active
Clc1ccccc1C[n+]1ccc(Cn2c3ccccc3c3ccccc32)cc1 | 11.5 | 590 | 6800 | 
Clc1cccc(C[n+]2ccc(Cn3c4ccccc4c4ccccc43)cc2)c1 | 26.6 | 350 | 9300 | 
Cc1ccccc1C[n+]1ccc(Cn2c3ccccc3c3ccccc32)cc1 | 34 | 350 | 11900 | 
Cc1ccc(C[n+]2cccc(Cn3c4ccccc4c4ccccc43)c2)cc1 | 210 | 110 | 23100 | 
Nc1c2c(nc3ccccc13)CCCC2 |  |  |  | inhibition [6]: 7.7%
Cc1ccccc1C[n+]1cccc(Cn2c3ccccc3c3ccccc32)c1 | 239 | 220 | 52500 | 
Clc1cccc(C[n+]2cccc(Cn3c4ccccc4c4ccccc43)c2)c1 | 205 | 160 | 32800 | 
Fc1cccc(C[n+]2cccc(Cn3c4ccccc4c4ccccc43)c2)c1 | > 133 | 750 | > 100000 | 
c1ccc(C[n+]2cccc(Cn3c4ccccc4c4ccccc43)c2)cc1 | 229 | 270 | 61900 | 
Clc1ccc(C[n+]2cccc(Cn3c4ccccc4c4ccccc43)c2)cc1.[Cl-] | 274 | 73 | 20000 | inhibition [6]: 49.9%; Activity (Rattus norvegicus [7]): Active; Activity (PC-12 [8]): Toxic; Activity (Rattus norvegicus [9]): Active; Activity (Rattus norvegicus [10]): inactive; Activity (PC-12 [11]): inactive; Activity (Rattus norvegicus [12]): Active; Ratio IC50 [13]: 129; Ratio IC50 [14]: 4.8; Ki (Cholinesterase [15]): 90 nM; viability at 10 µM (PC-12 [16]): 66%
Clc1ccccc1C[n+]1cccc(Cn2c3ccccc3c3ccccc32)c1 | > 263 | 380 | > 100000 | 
Fc1cccc(C[n+]2ccc(Cn3c4ccccc4c4ccccc43)cc2)c1 | 19.3 | 1100 | 21300 | 
Fc1ccccc1C[n+]1ccc(Cn2c3ccccc3c3ccccc32)cc1 | 18.9 | 670 | 12700 | 
c1ccc(C[n+]2ccc(Cn3c4ccccc4c4ccccc43)cc2)cc1 | 22.1 | 580 | 12800 | 
Clc1ccc(C[n+]2ccc(Cn3c4ccccc4c4ccccc43)cc2)cc1 | 11.9 | 1600 | 19000 | 
Cc1cccc(C[n+]2ccc(Cn3c4ccccc4c4ccccc43)cc2)c1 | 24 | 730 | 17500 | 
Fc1ccc(C[n+]2cccc(Cn3c4ccccc4c4ccccc43)c2)cc1 | 225 | 130 | 29400 | 
Cc1ccc(C[n+]2ccc(Cn3c4ccccc4c4ccccc43)cc2)cc1 | 19.3 | 810 | 15600 | 
Fc1ccccc1C[n+]1cccc(Cn2c3ccccc3c3ccccc32)c1 | > 270 | 370 | > 100000 | 
